In US10479808B1, “Bisphosphonate-based coordination complexes as enhanced pharmaceutical formulations and method of preparing the same” (University of Puerto Rico, priority 2018, dated 2019):
“Also recorded” adds a separate entry of the source.

Assays:
Format in all cases: physicochemical
[1] = Thermal stability by thermal gravimetric analysis (TGA) under N2
Description: Thermographs were recorded in a TGA Q500 (TA Instruments Inc.). Thermograph of the BP and pBioCCs were collected using a temperature range of 30-700° C. at 5° C./min under a N2 gas purge. In all cases, ˜10 mg of powder sample was thermally treated. Data was analyzed with TA Universal Analysis software version 4.3A.
It was expected that the thermograph of each pBioCCs consists of at least two mayor decomposition profiles one at lower temperature representing the loss of coordinated or lattice water molecules, and another at higher temperature which accounts for the thermal combustion of the organic moiety, the BP ligand, in this case ALEN. A third decomposition event might be observed above 350° C., due to the thermal degradation of the metal/metal oxide.

[2] = Dissolution profile in FaSSGF (pH 1.60), ALEN-Cu complexation, UV-Vis; details: for order of structural stability of the complexes: FaSSGF pH 1.60, from dissolution profiles
[3] = Dissolution profile in PBS (pH 7.40), ALEN-Cu complexation, UV-Vis; details: for order of structural stability of the complexes: PBS pH 7.40, from dissolution profiles

thermal stability (in words) [1]	time to reach maximum release ([2]; FaSSGF pH 1.60, 37 °C)	time to reach maximum release ([3]; PBS pH 7.40, 37 °C)	Structure (SMILES)	order of structural stability of the complexes [2]	order of structural stability of the complexes [3]
high thermal stability			NCCCC(O)(P(=O)([O-])O)P(=O)([O-])O.O.[Ca+2] [ALEN-Ca form I]	less stable; also recorded: ALEN-Ca form I<ALEN-Ca form II<ALEN-Zn form I<ALEN-Mg<ALEN-Zn form II	ALEN-Mg<ALEN-Ca form I<ALEN-Ca form II<ALEN-Zn form I<ALEN-Zn form II
high thermal stability			NCCCC(O)(P(=O)([O-])O)P(=O)([O-])O.O.[Zn+2] [ALEN-Zn form I]	ALEN-Ca form I<ALEN-Ca form II<ALEN-Zn form I<ALEN-Mg<ALEN-Zn form II	ALEN-Mg<ALEN-Ca form I<ALEN-Ca form II<ALEN-Zn form I<ALEN-Zn form II
	10 s	10 min	NCCCC(O)(P(=O)(O)O)P(=O)(O)O [ALEN, Alendronate sodium trihydrate, reference compound]		
